The text below walks through data of patent US9133165B2, “Sulfonic acid salts of heterocyclylamide-substituted imidazoles” (AICURIS GMBH & CO. KG, priority 2011, dated 2015).

SMILES strings stand for the structures. In brackets after ≈: the same amount, converted by molar mass. Like-named read-outs stand apart in the source and are kept apart here.

The test system of one series is HCMV AD 169 RV-HG. The series is described as follows: HCMV fluorescence reduction test. The series is classed as cell-based, human cytomegalovirus. The procedure: The test compounds are used as 50 millimolar (mM) solutions in dimethyl sulfoxide (DMSO). As reference compounds, e.g., Ganciclovir®, Foscarnet®, Cidofovir® or else the compound of Example 9A can be used. One day before the start of the test, 1.5×10^4 human foreskin fibroblasts (NHDF cells)/well are sowed in 200 μl of cell culture medium in the wells B2-G11 of 96-well plates (black with a translucent bottom). The wells at the edge position of each 96-well plate are filled only with 200 μl of medium to avoid edge effects. On the day of the test, the cell culture medium is suctioned off from the wells B2-G11 of each 96-well plate and replaced by 100 μl of virus suspension (multiplicity of infection (MOI): 0.1-0.2). The virus that is used is a recombinant HCMV, which has integrated an expression cassette for the green fluorescence protein (GFP) in the virus genome (HCMV AD 169 RV-HG, E. M. Borst, K. Wagner, A. Binz, B. Sodeik, and M. Messerle, 2008, J. Virol. 82: 2065-2078). After an incubation time of 2 hours at 37° C. and 5% CO2, the virus inoculate is suctioned off, and all wells except for the wells in Column 3 are filled with 200 μl of cell culture medium. Column 2 is not further treated and serves as a virus control. The wells in Column 3 are filled in each case in double determination with 300 μl of test substance (diluted in cell culture medium). The concentration of the respective antiviral substance in Column 3 is ˜ the 27× concentration of the EC50 value that is expected in each case. The test substance in Column 3 is diluted in 8 steps 1:3 over the 96-well plate by in each case 100 μl of a column being transferred into the right column in each case—and being mixed there with the existing 200 μl of cell culture medium. […] Then, the GFP intensity of each well of a 96-well plate is determined by means of a fluorescence reading device (FluoBox; Bayer Technology Services GmbH; Filter settings: GFP, Ex 480 nm, Em 520 nm). The EC50 of an anti-HCMV substance can be determined from the thus obtained measurement values: […]

The nature of series [1]: Solubility under simulated conditions in the human stomach. To be noted: aqueous sodium chloride solution (0.2% by weight), pH 1.2 with hydrochloric acid, stirred for 5 hours. In kind it is physicochemical. The procedure:
The samples were then treated as described above, and the amount of free base in solution is determined by means of HPLC.

A short description of series [2]: Solubility studies in H2O. The series is classed as physicochemical. To be noted: water, thermodynamic from solid, 20 mg in 1 ml of H2O, stirred overnight at 25° C., filtrate analyzed by HPLC. The protocol:
1 ml of H2O each is added, and the HPLC glasses are sealed. The suspensions that are produced are stirred overnight at 25° C. To estimate the amount of dissolved substance, the suspensions are filtered via pipette microfilters, and the filtrates that are obtained are diluted 1:4 and analyzed by means of HPLC. The HPLC analysis was carried out on a […] Luna RP18 (100A)-column with the following dimensions: 5 μm 50×4.6 mm with use of an isocratic mixture of acetonitrile and H2O+0.1% TFA in the ratio 3:7.

A short description of the next series: Hygroscopy. In kind it is physicochemical. Conditions: approximately 46% relative atmospheric humidity and 24° C., storage time approximately 2 days. The procedure:
By storing the salt of Example 1 in pure form at approximately 46% relative atmospheric humidity and 24° C., the hygroscopy of the salts according to the invention was measured.

[3] abbreviates: Human betaherpesvirus 5, AD169, NHDF, 168 h, read-out: EC50 (GFP-RA), virus strain AD169 RV-HG in NHDF cells, 7 days, GFP fluorescence.

The term EC50 denotes the concentration that produces a half-maximal response. Turning to `Nc1nc(O)c2ncn(COC(CO)CO)c2n1` [Ganciclovir, reference compound], the concentration giving a half-maximal response (EC50) in the series with HCMV AD 169 RV-HG (setting [3]) was 3200 nM.

As usually defined, the solubility is how much of the substance goes into solution per volume. A low value points to little dissolved substance. Regarding `Cc1ccc(N2CCN(C(=O)c3nc(NC(=O)Nc4ccc(OC(F)(F)F)cc4)cn3C)CC2)nc1` [Example 9A, N-(1-Methyl-2-{[4-(5-methylpyridin-2-yl)piperazin-1-yl]carbonyl}-1H-imidazol-4-yl)-N′-[4-(trifluoromethoxy)phenyl]urea], the “Amount of Dissolved Free Base” value in series [1] was 0.065 mg/mL. Besides, in the series with HCMV AD 169 RV-HG (setting [3]), the half-maximal effective concentration (EC50) is 1.5 nM. Moreover, in series [2], the concentration in solution (solubility) was 4 µg/mL (≈ 7.94 µM).

`CS(=O)(=O)O.CS(=O)(=O)O.Cc1ccc(N2CCN(C(=O)c3nc(NC(=O)Nc4ccc(OC(F)(F)F)cc4)cn3C)CC2)nc1` [Example 1, N-(1-Methyl-2-{[4-(5-methylpyridin-2-yl)piperazin-1-yl]-carbonyl}-1H-imidazol-4-yl)-N′-[4-trifluoromethoxyphenyl]urea dimesylate]: the “Amount of Dissolved Free Base” value in series [1] is 0.103 mg/mL. In the series with HCMV AD 169 RV-HG (read-out: EC50 (GFP-RA), virus strain AD169 RV-HG in NHDF cells, 7 days, GFP fluorescence, dimesylate), the EC50 worked out at 1.8 nM. The compound also displayed a solubility in series [2] greater than 9700 µg/mL. Besides, the “weight increase (hygroscopy)” value in “Hygroscopy” was “less than 0.11%”.
